The text below walks through data of PubChem BioAssay (NCI).

Test systems include COLO 205 colon; 786-0 renal; HOP-92 NSCLC; IGROV1 ovarian; HCC-2998 colon; MOLT-4 leukemia; SR leukemia; NCI/ADR-RES ovarian; EKVX NSCLC; SF-295 CNS.
What all share (assay): NCI-60 cell line screen, 48 h

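Dose response: 5 concentrations. Exposure: 48 h. Format: 96-well plates. Endpoint: linear interpolation; highest concentration if not reached. GI50 = concentration required for 50% inhibition of growth. The concentration for full growth arrest is given as TGI.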

`COc1cc2c(cc1OCCCCOc1ccc(-c3nc4ccccc4s3)cc1)N=C[C@@H]1CCCN1C2=O`: the GI50 with COLO 205 colon is 0.655 µM; in the experiment with 786-0 renal, 0.58 µM; in the experiment with HOP-92 NSCLC, 0.335 µM; in the experiment with IGROV1 ovarian, 1.28 µM; in the experiment on HCC-2998 colon it was 0.82 µM; in the experiment on MOLT-4 leukemia, 0.924 µM. Besides, the GI50 with SR leukemia was 0.276 µM; with NCI/ADR-RES ovarian, 1.49 µM; in the experiment on EKVX NSCLC it was 2.56 µM; in the experiment with SF-295 CNS, 1.22 µM. Also, the TGI with COLO 205 colon is 1.76 µM; with 786-0 renal, 1.16 µM; with HOP-92 NSCLC, 0.957 µM; in the experiment on IGROV1 ovarian it was 6.08 µM; in the experiment with HCC-2998 colon, 2.28 µM; in the experiment with MOLT-4 leukemia, 3.86 µM. Further, the TGI came to 1.12 µM in the experiment with SR leukemia, 5.17 µM in the experiment with NCI/ADR-RES ovarian, 6.39 µM in the experiment on EKVX NSCLC and 8.81 µM in the experiment with SF-295 CNS.
In the case of `C=C1C[C@@]2(C)C(CC[C@]3(C)C2CC=C2C4CC(C)(C)C[C@@H](OC(=O)/C(C)=C\C)[C@]4(C(=O)O)CC[C@]23C)C(C)(C)C1=O` (stereo not given in full), the GI50 in the experiment on COLO 205 colon is 3.59 µM; in the experiment with 786-0 renal, 2 µM; in the experiment on HOP-92 NSCLC it was 2.34 µM; in the experiment with IGROV1 ovarian, 3.05 µM; with HCC-2998 colon, 2.02 µM; in the experiment on MOLT-4 leukemia, 2.91 µM. In addition, the GI50 was 1.55 µM in the experiment with SR leukemia, 3.45 µM in the experiment on NCI/ADR-RES ovarian, 4.95 µM with EKVX NSCLC and 2.95 µM in the experiment with SF-295 CNS. The TGI was determined as 17.6 µM in the experiment with COLO 205 colon; 3.9 µM with 786-0 renal; 7.15 µM in the experiment on HOP-92 NSCLC; 10.1 µM in the experiment with IGROV1 ovarian; 4.52 µM with HCC-2998 colon; 24.8 µM in the experiment with MOLT-4 leukemia. Besides, the TGI in the experiment with SR leukemia is 8.92 µM; with NCI/ADR-RES ovarian, 33.4 µM; with EKVX NSCLC, 19 µM; in the experiment on SF-295 CNS, 11.1 µM.
With `COc1cc(/C=C2\C(=O)Nc3cccc(Cl)c32)cc(OC)c1OC`, the GI50 with COLO 205 colon was more than 100 µM; with 786-0 renal, 41.8 µM; in the experiment on HOP-92 NSCLC it was 23.9 µM; with IGROV1 ovarian it was more than 100 µM; in the experiment on HCC-2998 colon it was more than 100 µM; in the experiment with MOLT-4 leukemia it was 0.142 µM. The GI50 is 1.55 µM in the experiment with SR leukemia, more than 100 µM with NCI/ADR-RES ovarian, more than 100 µM with EKVX NSCLC and more than 100 µM in the experiment with SF-295 CNS. Besides, the TGI in the experiment on COLO 205 colon was more than 100 µM; in the experiment with 786-0 renal, more than 100 µM; in the experiment on HOP-92 NSCLC it was 93.2 µM; in the experiment on IGROV1 ovarian, more than 100 µM; in the experiment with HCC-2998 colon, more than 100 µM; with MOLT-4 leukemia, 1.34 µM. Further, the TGI in the experiment with SR leukemia is 25.1 µM; with NCI/ADR-RES ovarian it was more than 100 µM; in the experiment on EKVX NSCLC, more than 100 µM; with SF-295 CNS it was more than 100 µM.
For `C=C1C(=O)O[C@H]2[C@H]1CC/C(Cn1cc(-c3cc(C)c(C)cc3C)nn1)=C\CC[C@@]1(C)O[C@@H]21`, the GI50 with COLO 205 colon was 0.643 µM; with 786-0 renal, 1.5 µM; in the experiment with HOP-92 NSCLC, 0.436 µM; with IGROV1 ovarian, 1.29 µM; in the experiment on HCC-2998 colon, 1.72 µM; in the experiment on MOLT-4 leukemia, 2.38 µM. Moreover, the GI50 with SR leukemia was 1.26 µM; in the experiment on NCI/ADR-RES ovarian, 2.51 µM; with EKVX NSCLC, 1.22 µM; in the experiment on SF-295 CNS, 6.44 µM. The TGI was determined as 2.15 µM with COLO 205 colon; 3.18 µM with 786-0 renal; 1.68 µM with HOP-92 NSCLC; 2.74 µM with IGROV1 ovarian; 3.33 µM with HCC-2998 colon; 7.34 µM in the experiment on MOLT-4 leukemia. Moreover, the TGI was found to be 7.8 µM in the experiment on SR leukemia, 12.9 µM with NCI/ADR-RES ovarian, 2.53 µM in the experiment on EKVX NSCLC and 20.7 µM in the experiment with SF-295 CNS.
`COc1ccc(N(C)c2c3ccccc3nc3[nH]c4ccccc4c23)cc1`: the GI50 in the experiment with COLO 205 colon is 0.347 µM; with 786-0 renal it was 0.444 µM; with HOP-92 NSCLC, 1.07 µM; in the experiment on IGROV1 ovarian it was 2.19 µM; in the experiment on HCC-2998 colon it was 0.268 µM; with MOLT-4 leukemia, 0.0883 µM. In addition, the GI50 in the experiment on SR leukemia is 0.186 µM; with NCI/ADR-RES ovarian it was 2.95 µM; with EKVX NSCLC it was 1.06 µM; with SF-295 CNS it was 0.387 µM. In addition, the TGI in the experiment with COLO 205 colon amounted to 6.13 µM; with 786-0 renal it was 1.9 µM; in the experiment on HOP-92 NSCLC it was 4.49 µM; in the experiment with IGROV1 ovarian, 13.5 µM; in the experiment on HCC-2998 colon, 1.02 µM; in the experiment with MOLT-4 leukemia it was 50 µM. The TGI with SR leukemia was determined as 50 µM; with NCI/ADR-RES ovarian, 9.91 µM; in the experiment on EKVX NSCLC, 4.12 µM; with SF-295 CNS it was 2.59 µM.
As to `COc1ccccc1-c1cc(=O)c2ccc(OC)c(OC)c2o1`, the TGI in the experiment with COLO 205 colon, in the experiment on 786-0 renal, in the experiment with HOP-92 NSCLC, with IGROV1 ovarian, with HCC-2998 colon and in the experiment on MOLT-4 leukemia was more than 100 µM each time. For the same molecule, the TGI with SR leukemia, in the experiment on NCI/ADR-RES ovarian, in the experiment on EKVX NSCLC and in the experiment on SF-295 CNS was more than 100 µM throughout.
With `COc1ccc2c(c1)C1(C(=O)N2)C(C#N)=C(c2ccccc2)Nc2c1c(-c1ccccc1)nn2-c1ccccc1` (stereo not given), the GI50 is 2.42 µM in the experiment with COLO 205 colon; 2.03 µM in the experiment with 786-0 renal; 2.34 µM in the experiment on HOP-92 NSCLC; 3.57 µM in the experiment with IGROV1 ovarian; 3.51 µM with HCC-2998 colon; 3.37 µM in the experiment on MOLT-4 leukemia. The GI50 in the experiment on SR leukemia was 3.08 µM; in the experiment on NCI/ADR-RES ovarian, 31.9 µM; in the experiment on EKVX NSCLC, 4.44 µM; in the experiment on SF-295 CNS, 8.86 µM. Moreover, the TGI in the experiment with COLO 205 colon turned out to be 5.83 µM; with 786-0 renal, 4.94 µM; with HOP-92 NSCLC, 6.34 µM; in the experiment with IGROV1 ovarian, 16.4 µM; in the experiment with HCC-2998 colon, 12.5 µM; with MOLT-4 leukemia, 11 µM. Also, the TGI with SR leukemia is 8.65 µM; in the experiment on NCI/ADR-RES ovarian, more than 100 µM; in the experiment with EKVX NSCLC it was 22.2 µM; in the experiment with SF-295 CNS it was 21.1 µM.
